Test results as given in patent publication US7186751B2, “Injectable composition of paclitaxel” (priority 2001, dated 2007).

Tests used:
rat [1] = conditions: ratio of LD50 in rat
Description: The common stabilizer has danger in the safety in case of excessive use.

rat [2] = conditions: cited from earlier work

For `CC(=O)N[C@@H](CS)C(=O)O` [N-acetyl cysteine], the “Lower toxicity than citric acid” value (rat [1]) is listed as 90 times and the LD50 (rat [2]) is listed as 3600 mg/kg.
